These results are taken from article PMC11648915, “Identification and development of TRPM4 antagonists to counteract neuronal excitotoxicity” (iScience, 2024).

The target of one data set is human TRPM4 (Homo sapiens, UniProt Q8TD43). Kind of data set: QPatch automated patch clamp on TRPM4-expressing HEK293 cells. As to conditions: hsTRPM4-expressing HEK293 cells. Format: cell-based. The protocol: QPatchHTX, an automated electrophysiology platform, was used in single hole mode. One day before use human TRPM4- or TRPM5-expressing HEK293 cells were seeded in a T75 flask at a density of 53k cells per cm^2 and at passages < 23. […] The extracellular solution was (in mM): CaCl2 (7), MgCl2 (2), KCl (5), HEPES (10), NaCl (70), NMDG (70); pH 7.4 with NaOH. The intracellular solution was (in mM): HEPES (10), NMDG (100), NaCl (50), EGTA (20), MgCl2 (1), CaCl2 (21); pH 7.2 with HCl. […] This protocol was repeated every 7 seconds. […] FFA was used as reference compound and applied cumulatively with each concentration incubating at a minimum of 20 voltage protocol runs (140 seconds) with the current after addition of FFA being calculated as full block. […] Each compound was measured at least 3 time independently.
In general terms: The patch-clamp technique gives a direct electrical read-out from membranes.

In a further data set the target is T1, human TRPM5 (Homo sapiens, UniProt Q9NZQ8).
T1 sequence (Q9NZQ8 1-1165): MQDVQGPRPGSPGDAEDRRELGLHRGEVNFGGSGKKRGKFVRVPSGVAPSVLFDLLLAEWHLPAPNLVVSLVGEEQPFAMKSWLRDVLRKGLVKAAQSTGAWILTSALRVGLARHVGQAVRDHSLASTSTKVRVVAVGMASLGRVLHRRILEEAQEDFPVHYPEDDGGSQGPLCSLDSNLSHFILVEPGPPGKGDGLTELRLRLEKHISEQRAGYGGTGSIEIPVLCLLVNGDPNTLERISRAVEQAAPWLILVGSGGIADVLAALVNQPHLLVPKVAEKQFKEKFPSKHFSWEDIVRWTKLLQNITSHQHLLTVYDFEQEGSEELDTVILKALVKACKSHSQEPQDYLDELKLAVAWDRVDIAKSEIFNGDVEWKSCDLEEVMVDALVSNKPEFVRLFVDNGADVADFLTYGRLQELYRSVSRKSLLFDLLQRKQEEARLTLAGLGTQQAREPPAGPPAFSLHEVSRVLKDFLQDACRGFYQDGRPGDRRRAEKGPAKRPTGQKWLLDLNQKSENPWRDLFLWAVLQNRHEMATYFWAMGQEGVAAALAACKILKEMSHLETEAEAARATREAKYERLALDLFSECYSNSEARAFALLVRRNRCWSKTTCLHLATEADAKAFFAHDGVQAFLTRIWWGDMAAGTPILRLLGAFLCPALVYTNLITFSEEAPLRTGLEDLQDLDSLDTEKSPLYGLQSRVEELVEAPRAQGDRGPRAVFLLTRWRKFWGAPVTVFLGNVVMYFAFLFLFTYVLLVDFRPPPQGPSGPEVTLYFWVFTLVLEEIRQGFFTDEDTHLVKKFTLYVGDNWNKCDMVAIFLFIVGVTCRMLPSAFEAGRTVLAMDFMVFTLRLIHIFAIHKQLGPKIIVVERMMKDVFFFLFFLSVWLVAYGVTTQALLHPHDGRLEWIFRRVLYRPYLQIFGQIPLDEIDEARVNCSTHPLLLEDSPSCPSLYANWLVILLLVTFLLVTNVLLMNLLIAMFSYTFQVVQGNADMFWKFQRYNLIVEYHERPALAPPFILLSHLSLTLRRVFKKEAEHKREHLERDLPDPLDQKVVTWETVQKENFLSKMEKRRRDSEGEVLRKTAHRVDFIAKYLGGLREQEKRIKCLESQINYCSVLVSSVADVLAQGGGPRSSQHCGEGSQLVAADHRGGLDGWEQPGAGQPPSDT
The data set is described as follows: QPatch automated patch clamp on TRPM5-expressing HEK293 cells. As to conditions: hsTRPM5-expressing HEK293 cells. Format: cell-based. The text has this:
The counter screening phase involved the inclusion of hsTRPM5-expressing HEK293 cells, as closest homologue, and the parental HEK293 cell line to evaluate selectivity. […] Based on categorization of biological activity, mass spectrometry quality control, and aspects of medicinal chemistry, we prioritized 144 selective hsTRPM4 compounds. These compounds were then subjected to automated patch clamp electrophysiology measurements (QPatch[58]) to evaluate their activity profiles and IC50 values (Figures 1A, S1, and S2).
QPatchHTX, an automated electrophysiology platform, was used in single hole mode. One day before use human TRPM4- or TRPM5-expressing HEK293 cells were seeded in a T75 flask at a density of 53k cells per cm^2 and at passages < 23. For QPatch assays, cells were harvested and re-suspended in SFM (Gibco, 11686029). The extracellular solution was (in mM): CaCl2 (7), MgCl2 (2), KCl (5), HEPES (10), NaCl (70), NMDG (70); pH 7.4 with NaOH. The intracellular solution was (in mM): HEPES (10), NMDG (100), NaCl (50), EGTA (20), MgCl2 (1), CaCl2 (21); pH 7.2 with HCl. After break-in, channels were consistently open and current through the channels could be observed at a voltage ramp from –100 mV to +100 mV over 500 ms. This protocol was repeated every 7 seconds. After saline and vehicle application, the channel was desensitized and residual current was used as baseline. FFA was used as reference compound and applied cumulatively with each concentration incubating at a minimum of 20 voltage protocol runs (140 seconds) with the current after addition of FFA being calculated as full block. […] Each compound was measured at least 3 time independently.

Data set [1] can be described thus: Microsome clearance (mouse). Format: in vitro ADME. To be noted: mouse liver microsomes, 45 min, NADPH. How it is done:
Human or mouse liver microsomes were incubated with the test compound at a concentration of 1 μM for 45 min in the presence of cofactor (NADPH in excess). Samples were collected at various time points, and % remaining of test compound was determined using mass spectrometry (LC-MS/MS) to calculate hepatic clearance rate (L/h/kg).

Another data set concerns the target T2, CYP3A4 (Homo sapiens, UniProt P08684).
T2 construct: purchased BD Gentest
Kind of data set: CYP inhibition assay 3A4. In kind it is in vitro ADME. The protocol: (§1) The half-maximal inhibitory concentration (IC50) for cytochrome P450 (CYP) enzymes was determined using an in vitro enzyme inhibition assay. Recombinant CYP enzymes or human liver microsomes from BD Gentest, in 0.1 M phosphate buffer pH 7.4, containing native CYP enzymes were incubated with the test compound at various concentrations (1, 3, 10 and 30 μM) and containing 0.5% DMSO and 0.1% BSA final concentrations. 1 mM of NADPH cofactor was added and the reaction was started by a rapid increase of temperature until 37°C.

For a further data set, the target named is T3, CYP2D6 (Homo sapiens, UniProt P10635).
T3 construct: purchased BD Gentest
Kind of data set: CYP inhibition assay 2D6. In kind it is in vitro ADME. How it is done: as §1

Where [2] appears, read: TDI, read-out: Cyp IC50 TDI 3A4.

Broadly, the IC50 is the concentration that inhibits the measured activity by half. For orientation: CLint scaled means the rate of metabolic loss divided by the concentration. Read a high CLint scaled as faster metabolism.

Where two headings read alike, the source gives them in different places.

Sequence of human TRPM4 (Q8TD43 whole entry): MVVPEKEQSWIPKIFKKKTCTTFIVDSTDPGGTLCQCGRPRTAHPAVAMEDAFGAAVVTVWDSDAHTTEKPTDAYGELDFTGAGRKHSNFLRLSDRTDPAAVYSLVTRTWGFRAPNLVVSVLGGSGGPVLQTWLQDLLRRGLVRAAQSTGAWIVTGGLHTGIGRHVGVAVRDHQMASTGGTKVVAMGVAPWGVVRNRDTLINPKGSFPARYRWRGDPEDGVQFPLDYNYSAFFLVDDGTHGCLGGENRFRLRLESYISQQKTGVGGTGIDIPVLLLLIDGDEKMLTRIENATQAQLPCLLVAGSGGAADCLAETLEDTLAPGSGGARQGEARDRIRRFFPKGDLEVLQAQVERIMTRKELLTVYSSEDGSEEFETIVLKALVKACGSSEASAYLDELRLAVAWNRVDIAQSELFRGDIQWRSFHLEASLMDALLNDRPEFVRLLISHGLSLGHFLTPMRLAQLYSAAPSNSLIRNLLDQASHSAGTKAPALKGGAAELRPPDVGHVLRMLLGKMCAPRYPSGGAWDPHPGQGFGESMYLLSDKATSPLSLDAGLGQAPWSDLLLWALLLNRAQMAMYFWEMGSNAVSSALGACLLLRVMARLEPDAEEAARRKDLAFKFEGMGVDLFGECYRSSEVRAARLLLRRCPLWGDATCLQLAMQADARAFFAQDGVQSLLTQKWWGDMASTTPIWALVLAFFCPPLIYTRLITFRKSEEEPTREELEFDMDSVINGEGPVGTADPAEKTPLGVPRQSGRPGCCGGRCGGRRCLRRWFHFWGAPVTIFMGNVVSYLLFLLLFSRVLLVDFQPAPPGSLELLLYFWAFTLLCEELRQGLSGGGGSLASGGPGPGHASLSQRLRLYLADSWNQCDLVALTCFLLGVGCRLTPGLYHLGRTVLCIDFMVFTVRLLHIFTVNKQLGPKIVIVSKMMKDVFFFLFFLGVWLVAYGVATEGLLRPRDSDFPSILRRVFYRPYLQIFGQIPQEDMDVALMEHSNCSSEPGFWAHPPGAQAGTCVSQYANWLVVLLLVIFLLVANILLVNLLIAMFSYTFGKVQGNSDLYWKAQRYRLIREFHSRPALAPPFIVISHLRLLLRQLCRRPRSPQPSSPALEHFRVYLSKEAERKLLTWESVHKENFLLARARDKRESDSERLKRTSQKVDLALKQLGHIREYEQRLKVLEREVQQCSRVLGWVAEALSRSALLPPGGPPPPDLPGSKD
T2 sequence (P08684 whole entry): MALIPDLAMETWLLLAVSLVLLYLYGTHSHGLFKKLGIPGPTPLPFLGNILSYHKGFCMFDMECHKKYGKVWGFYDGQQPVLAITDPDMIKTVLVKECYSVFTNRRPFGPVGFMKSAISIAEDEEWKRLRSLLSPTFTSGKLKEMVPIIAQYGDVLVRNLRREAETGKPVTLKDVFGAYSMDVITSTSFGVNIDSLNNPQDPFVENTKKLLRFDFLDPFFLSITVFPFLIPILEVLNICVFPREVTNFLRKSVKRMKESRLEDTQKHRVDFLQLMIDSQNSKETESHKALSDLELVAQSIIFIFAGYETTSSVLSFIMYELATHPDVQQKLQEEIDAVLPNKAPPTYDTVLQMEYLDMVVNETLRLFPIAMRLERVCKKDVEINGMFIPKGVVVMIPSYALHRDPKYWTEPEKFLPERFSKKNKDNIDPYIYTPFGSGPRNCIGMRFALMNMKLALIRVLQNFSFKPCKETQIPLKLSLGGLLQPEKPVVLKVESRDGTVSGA
T3 sequence (P10635 whole entry): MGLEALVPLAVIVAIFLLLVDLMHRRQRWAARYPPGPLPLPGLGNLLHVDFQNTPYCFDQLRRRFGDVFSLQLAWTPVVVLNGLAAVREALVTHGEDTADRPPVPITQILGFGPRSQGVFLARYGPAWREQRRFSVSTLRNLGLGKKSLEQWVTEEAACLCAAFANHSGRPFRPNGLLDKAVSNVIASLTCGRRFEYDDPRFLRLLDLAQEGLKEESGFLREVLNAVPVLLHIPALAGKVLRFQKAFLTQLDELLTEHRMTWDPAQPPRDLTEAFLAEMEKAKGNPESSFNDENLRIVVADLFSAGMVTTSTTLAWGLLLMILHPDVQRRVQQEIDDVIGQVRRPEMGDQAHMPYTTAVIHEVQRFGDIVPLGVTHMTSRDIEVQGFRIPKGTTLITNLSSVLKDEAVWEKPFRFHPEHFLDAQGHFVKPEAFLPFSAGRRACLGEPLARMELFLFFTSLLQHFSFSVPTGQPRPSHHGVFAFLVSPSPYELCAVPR

Turning to `Fc1cccc(-c2ccccc2NCc2nc3ccccc3o2)c1` [CMP343], the IC50 on human TRPM4 was 90 nM; against human TRPM5, more than 10 µM; on CYP3A4 (setting [2]), more than 50 µM; on CYP3A4 (read-out: Cyp IC50 3A4), more than 50 µM; at CYP2D6 it was more than 50 µM. In data set [1], this compound registered an intrinsic metabolic clearance (CLint scaled) at 1 μM of more than 900 mL/min/kg.

For the compound `Fc1ccccc1-c1ccccc1NCc1nc2ccccc2o1` [CMP353], the IC50 is 80 nM on human TRPM4, more than 10 µM at human TRPM5, more than 29.6 µM on CYP3A4 (read-out: Cyp IC50 3A4) and more than 50 µM at CYP2D6. For the same compound, the CLint scaled at 1 μM in data set [1] is more than 900 mL/min/kg.

`c1csc(-c2ccccc2NCc2nc3ccccc3o2)c1` [CMP355]: the 50% inhibitory concentration (IC50) on human TRPM4 is 590 nM; on human TRPM5, more than 10 µM; at CYP3A4 (setting [2]), more than 50 µM; at CYP3A4 (read-out: Cyp IC50 3A4) it was more than 50 µM; on CYP2D6, more than 50 µM. Further, the intrinsic metabolic clearance (CLint scaled) at 1 μM in data set [1] is more than 900 mL/min/kg.

For `Cc1ccsc1-c1ccccc1NCc1nc2ccccc2o1` [CMP369], the IC50 on human TRPM5 is more than 10 µM; against CYP3A4 (human, pH 7.4) it was more than 50 µM; at CYP2D6 (human, pH 7.4), more than 50 µM. This compound also displayed a CLint scaled at 1 μM in data set [1] of more than 900 mL/min/kg.

As to `Nc1ccccc1-c1ccccc1NCc1nc2ccccc2o1` [CMP457], the concentration for half-maximal inhibition (IC50) at human TRPM5 was more than 30 µM; against CYP2D6, more than 50 µM. In data set [1], the intrinsic metabolic clearance (CLint scaled) at 1 μM is 900 mL/min/kg.
